Values of other authors as cited in patent US20050003028A1, “Composition for protection and regeneration of structure and function of the liver” (priority 2001, published 2005).

Settings: in vivo

Substance: Sylimarin
- re-absorbtion into digestive system: weak
